Data: PubChem BioAssay (NCI)
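Results reflect a 48-hour exposure of cells in 96-well plates to compound at five concentrations. Abbreviation: GI50, concentration required for 50% inhibition of growth. TGI denotes the concentration required for complete inhibition of growth.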

Assays:
Assay in all cases: NCI-60 cell line screen, 48 h
SF-539 CNS = tested on: SF-539 CNS
SF-268 CNS = tested on: SF-268 CNS
KM12 colon = tested on: KM12 colon
NCI-H522 lung = tested on: NCI-H522 lung
NCI/ADR-RES ovarian = tested on: NCI/ADR-RES ovarian
MOLT-4 leukemia = tested on: MOLT-4 leukemia
A498 renal = tested on: A498 renal
A549 NSCLC = tested on: A549 NSCLC
LOX IMVI melanoma = tested on: LOX IMVI melanoma
786-0 renal = tested on: 786-0 renal

## COc1ccc2nc(NCN3C(=O)c4ccccc4C3=O)sc2c1
SF-539 CNS
  TGI: > 100 µM
SF-268 CNS
  TGI: > 100 µM
KM12 colon
  TGI: > 100 µM
NCI-H522 lung
  TGI: > 100 µM
NCI/ADR-RES ovarian
  TGI: > 100 µM
MOLT-4 leukemia
  TGI: > 100 µM
A498 renal
  TGI: > 100 µM
A549 NSCLC
  TGI: > 100 µM
LOX IMVI melanoma
  TGI: > 100 µM
786-0 renal
  TGI: > 100 µM

## c1cncc(-c2nc3ccccc3s2)c1
SF-539 CNS
  GI50: > 100 µM
  TGI: > 100 µM
SF-268 CNS
  GI50: > 100 µM
  TGI: > 100 µM
KM12 colon
  GI50: > 100 µM
  TGI: > 100 µM
NCI-H522 lung
  GI50: > 100 µM
  TGI: > 100 µM
NCI/ADR-RES ovarian
  GI50: > 100 µM
  TGI: > 100 µM
MOLT-4 leukemia
  GI50: 73.7 µM
  TGI: > 100 µM
A498 renal
  GI50: 50.7 µM
  TGI: > 100 µM
A549 NSCLC
  GI50: > 100 µM
  TGI: > 100 µM
LOX IMVI melanoma
  GI50: > 100 µM
  TGI: > 100 µM
786-0 renal
  GI50: > 100 µM
  TGI: > 100 µM

## N#Cc1ccc(C2C3=C(CCCC3=O)OC3=C2C(=O)c2ccccc2C3=O)cc1 (stereo not given)
SF-539 CNS
  GI50: 1.69 µM
  TGI: 3.06 µM
SF-268 CNS
  GI50: 1.97 µM
  TGI: 5.04 µM
KM12 colon
  GI50: 3.14 µM
  TGI: 12.9 µM
NCI-H522 lung
  GI50: 1.99 µM
  TGI: 4.31 µM
NCI/ADR-RES ovarian
  GI50: 0.899 µM
  TGI: 7.81 µM
MOLT-4 leukemia
  GI50: 1.63 µM
  TGI: 5.53 µM
A498 renal
  GI50: 13.9 µM
  TGI: 27 µM
A549 NSCLC
  GI50: 7.66 µM
  TGI: 22.3 µM
LOX IMVI melanoma
  GI50: 0.343 µM
  TGI: 1.69 µM
786-0 renal
  GI50: 1.87 µM
  TGI: 3.76 µM

## COc1ccc(-c2cn(-c3cccc(C(=O)/C=C/c4ccc(O)c(OC)c4)c3)c(=O)[nH]2)cc1
SF-539 CNS
  GI50: 2.12 µM
  TGI: 5.53 µM
SF-268 CNS
  GI50: 3.32 µM
  TGI: 14.7 µM
KM12 colon
  GI50: 1.7 µM
  TGI: 3.57 µM
NCI-H522 lung
  GI50: 2.6 µM
  TGI: 10.7 µM
NCI/ADR-RES ovarian
  GI50: 2.97 µM
  TGI: > 31.4 µM
MOLT-4 leukemia
  GI50: 2.87 µM
  TGI: > 23.8 µM
A498 renal
  GI50: 3.51 µM
  TGI: 13.1 µM
A549 NSCLC
  GI50: 3.64 µM
  TGI: > 53 µM
LOX IMVI melanoma
  GI50: 2.21 µM
  TGI: 6.02 µM
786-0 renal
  GI50: 4.32 µM
  TGI: 24.5 µM

## O=C1C(Cl)=C(Nc2cccc(O)c2)C(=O)N1Cc1ccc(Cl)cc1
SF-539 CNS
  GI50: 2.63 µM
  TGI: 16.6 µM
SF-268 CNS
  GI50: 4.26 µM
  TGI: 18.6 µM
KM12 colon
  GI50: 2.11 µM
  TGI: 11.3 µM
NCI-H522 lung
  GI50: 3.18 µM
  TGI: 21.7 µM
NCI/ADR-RES ovarian
  GI50: 1.58 µM
  TGI: 10.2 µM
MOLT-4 leukemia
  GI50: 1.35 µM
  TGI: > 100 µM
A498 renal
  GI50: 5 µM
  TGI: 21.8 µM
A549 NSCLC
  GI50: 5.22 µM
  TGI: 37.4 µM
LOX IMVI melanoma
  GI50: 1.47 µM
  TGI: 6.34 µM
786-0 renal
  GI50: 1.63 µM
  TGI: 28.1 µM

## CCn1c2ccc(C(=O)CCCN(C)C)cc2c2cc(C(=O)CCCN(C)C)ccc21
SF-539 CNS
  TGI: 2.79 µM
SF-268 CNS
  TGI: 6.62 µM
KM12 colon
  TGI: 11.2 µM
NCI-H522 lung
  TGI: 8.68 µM
NCI/ADR-RES ovarian
  TGI: 21.9 µM
MOLT-4 leukemia
  TGI: > 100 µM
A498 renal
  TGI: 4.51 µM
A549 NSCLC
  TGI: 3.27 µM
LOX IMVI melanoma
  TGI: 4.76 µM
786-0 renal
  TGI: 2.82 µM

## CCN(CC)CCCC(C)Nc1c2ccc(Cl)cc2nc2cc(OC)c(OC)cc12 (stereo not given)
SF-539 CNS
  GI50: 1.64 µM
  TGI: 3.19 µM
SF-268 CNS
  GI50: 1.93 µM
  TGI: 7.03 µM
KM12 colon
  GI50: 2.54 µM
  TGI: 10.6 µM
NCI-H522 lung
  GI50: 2.35 µM
  TGI: 5.76 µM
NCI/ADR-RES ovarian
  GI50: 2.47 µM
  TGI: 9.69 µM
MOLT-4 leukemia
  GI50: 0.594 µM
  TGI: 12.6 µM
A498 renal
  GI50: 7.07 µM
  TGI: 22.2 µM
A549 NSCLC
  GI50: 1.85 µM
  TGI: 4.56 µM
LOX IMVI melanoma
  GI50: 1.23 µM
  TGI: 2.64 µM
786-0 renal
  GI50: 1.46 µM
  TGI: 5.57 µM

## O=C1c2cc(-c3ccccc3)ccc2-c2c1c1ccc([N+](=O)[O-])cc1c(=O)n2CCCBr
SF-539 CNS
  GI50: > 28.7 µM
  TGI: > 50 µM
SF-268 CNS
  GI50: > 35.4 µM
  TGI: > 50 µM
KM12 colon
  GI50: > 50 µM
  TGI: > 50 µM
NCI-H522 lung
  GI50: > 50 µM
  TGI: > 50 µM
NCI/ADR-RES ovarian
  GI50: > 50 µM
  TGI: > 50 µM
MOLT-4 leukemia
  GI50: > 50 µM
  TGI: > 50 µM
A498 renal
  GI50: 32.5 µM
  TGI: > 50 µM
A549 NSCLC
  GI50: > 50 µM
  TGI: > 50 µM
LOX IMVI melanoma
  GI50: > 50 µM
  TGI: > 50 µM
786-0 renal
  GI50: > 31.7 µM
  TGI: > 50 µM

## Cc1ccc(C(=O)/C(=C\c2ccc([N+](=O)[O-])cc2)S(=O)Cc2ccc(F)cc2)cc1 (stereo not given)
SF-539 CNS
  GI50: 1.72 µM
  TGI: 3.29 µM
SF-268 CNS
  GI50: 1.69 µM
  TGI: 3.36 µM
KM12 colon
  GI50: 2.12 µM
  TGI: 4.78 µM
NCI-H522 lung
  GI50: 1.55 µM
  TGI: 3.01 µM
NCI/ADR-RES ovarian
  GI50: 2.28 µM
  TGI: 5.97 µM
MOLT-4 leukemia
  GI50: 1.3 µM
  TGI: 5.58 µM
A498 renal
  GI50: 2.48 µM
  TGI: 6.04 µM
A549 NSCLC
  GI50: 2.86 µM
  TGI: 8.8 µM
LOX IMVI melanoma
  GI50: 1.46 µM
  TGI: 2.95 µM
786-0 renal
  GI50: 1.37 µM
  TGI: 2.68 µM

## COc1cc2c(cc1OC)C(CC1(O)CCCCC1)N(S(=O)(=O)c1ccc(C)cc1)CC2 (stereo not given)
SF-539 CNS
  GI50: > 10 µM
  TGI: > 10 µM
SF-268 CNS
  GI50: > 10 µM
  TGI: > 10 µM
KM12 colon
  GI50: > 10 µM
  TGI: > 10 µM
NCI-H522 lung
  GI50: > 10 µM
  TGI: > 10 µM
NCI/ADR-RES ovarian
  GI50: > 10 µM
  TGI: > 10 µM
MOLT-4 leukemia
  GI50: > 10 µM
  TGI: > 10 µM
A498 renal
  GI50: > 10 µM
  TGI: > 10 µM
A549 NSCLC
  GI50: > 10 µM
  TGI: > 10 µM
LOX IMVI melanoma
  GI50: > 10 µM
  TGI: > 10 µM
786-0 renal
  GI50: > 10 µM
  TGI: > 10 µM
